According to patent US10973779B2, “Astaxanthin compound composition and the method thereof” (Bioptik Technology, Inc., priority 2019, dated 2021):

Columns and labels:
Type in all cases: in vivo, Syrian hamsters
[1] = system: hamsters fed with high cholesterol diet; experiment: Animal experiments on lowering blood lipids: serum lipid profile
Method: Male Syrian hamsters aged 6-7 weeks were tested for evaluating the effects of lowering blood lipid profile. Animals were divided into 6 groups, 8 hamsters in each group with a total of 48 hamsters. The experiment was conducted for 8 weeks, and the dosing method was oral gavage, and the animals of experimental groups were fed with the astaxanthin compound composition prepared according to the present invention. The dosage used was calculated according to the dosage for adult human. […] Based on this dosage, the 1×, 2× and 3× dosages were respectively defined for the following testing. The animals were fed with 1× (the converted dosage for hamster is 30.83 mg/kg), 2× (the converted dosage for hamster is 61.67 mg/kg) and 3× (the converted dosage for hamster is 92.50 mg/kg) dosages. At the same time, the clinically used anti-hyperlipidemic drug, Probucol, was used as comparison for evaluating the anti-hyperlipidemic effect. [table] Biostatistical analysis method: the results of the experiment were statistically tested based on one-way ANOVA by using SPSS 10.1 system. Then, the difference among the groups was tested by Duncan's Multiple Range Test. When the p value is smaller than 0.05 (P<0.05), it indicates statistically significant difference. The experimental animals were sacrificed to have blood drawn and the results of total cholesterol (TC) and triglyceride (TG) were shown in Table 2. […] Please continue to refer to Table 2 for the effects of astaxanthin compound composition on high-density lipoprotein cholesterol (HDL-C), low-density lipoprotein cholesterol (LDL-C) in hamsters fed with high cholesterol diet.

[2] = system: hamsters fed with high cholesterol diet; experiment: Animal experiments on lowering blood lipids: total cholesterol and triglyceride in the liver
Method: (§1) Male Syrian hamsters aged 6-7 weeks were tested for evaluating the effects of lowering blood lipid profile. Animals were divided into 6 groups, 8 hamsters in each group with a total of 48 hamsters. The experiment was conducted for 8 weeks, and the dosing method was oral gavage, and the animals of experimental groups were fed with the astaxanthin compound composition prepared according to the present invention. The dosage used was calculated according to the dosage for adult human. […] Based on this dosage, the 1×, 2× and 3× dosages were respectively defined for the following testing. The animals were fed with 1× (the converted dosage for hamster is 30.83 mg/kg), 2× (the converted dosage for hamster is 61.67 mg/kg) and 3× (the converted dosage for hamster is 92.50 mg/kg) dosages. At the same time, the clinically used anti-hyperlipidemic drug, Probucol, was used as comparison for evaluating the anti-hyperlipidemic effect. [table] Biostatistical analysis method: the results of the experiment were statistically tested based on one-way ANOVA by using SPSS 10.1 system. Then, the difference among the groups was tested by Duncan's Multiple Range Test. When the p value is smaller than 0.05 (P<0.05), it indicates statistically significant difference. When the concentration of total cholesterol and triglyceride in the liver is too high, the risk of developing fatty liver may increase. According to the present Experimental Example, the concentration changes in total cholesterol and triglyceride in the liver and feces of the tested animals are shown in Table 3.

[3] = system: hamsters fed with high cholesterol diet; experiment: Animal experiments on lowering blood lipids: total cholesterol and triglyceride in the feces; conditions: Positive control (P), 124 mg/kg oral gavage, 8 weeks
Method: as §1, with “When the concentration of total cholesterol and triglyceride in the liver is too high, the risk of developing fatty liver may increase. According to the present Experimental Example, the concentration changes in total cholesterol and triglyceride in the liver and feces of the tested animals are shown in Table 3.” left out

[4] = Positive control (P), 124 mg/kg oral gavage, 8 weeks, high cholesterol diet

In the case of `CC(C)(Sc1cc(C(C)(C)C)c(O)c(C(C)(C)C)c1)Sc1cc(C(C)(C)C)c(O)c(C(C)(C)C)c1` [Probucol], the HDL-C in serum [1, 4] is reported as 83 ± 11 mg/dL, the HDL-C/TC in serum [1, 4] is reported as 0.707 ± 0.066 and the LDL-C in serum [1, 4] is reported as 31.8 ± 3.9 mg/dL. The LDL-C/HDL-C in serum [1, 4] was 0.392 ± 0.110, the LDL-C/TC in serum [1, 4] was 0.203 ± 0.032 and the “TC (total cholesterol) in serum” value [1, 4] was 157 ± 11 mg/dL. The “TG (triglyceride) in serum” value [1, 4] was 152 ± 14 mg/dL, the “total cholesterol in blood compared with vehicle control group” value ([1]; positive control group, 124 mg/kg, p<0.05) was “significantly lower” and the “liver TC” value [2, 4] was 3.80 ± 0.26 mg/g. For the same molecule, the “liver TG” value [2, 4] was 13.7 ± 1.5 mg/g, the “total cholesterol concentration in the liver compared with vehicle control group” value ([2]; positive control (P) group, 124 mg/kg, p<0.05) was “significantly lower” and the “feces TC” value [3] was 6.7 ± 0.9 mg/g. The “feces TG” value [3] was 15.8 ± 2.8 mg/g.
